Experimental data reported in PubChem BioAssay (NCI).
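Compound exposure: 48 hours, 5 concentrations, 96-well plates. The concentration for full growth arrest is given as TGI.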

Experiments:
Assay in all cases: DTP human tumour cell line panel, 48 h
SR leukemia = system: SR leukemia
A498 renal = system: A498 renal
OVCAR-8 ovarian = system: OVCAR-8 ovarian
SW-620 colon = system: SW-620 colon
CAKI-1 renal = system: CAKI-1 renal
SK-MEL-5 melanoma = system: SK-MEL-5 melanoma
HCT-15 colon = system: HCT-15 colon
RPMI-8226 leukemia = system: RPMI-8226 leukemia
ACHN renal = system: ACHN renal
MDA-N = system: MDA-N
SK-MEL-2 melanoma = system: SK-MEL-2 melanoma
NCI-H226 lung = system: NCI-H226 lung
SN12C renal = system: SN12C renal

SMILES	TGI (SR leukemia) [µM]	TGI (A498 renal) [µM]	TGI (OVCAR-8 ovarian) [µM]	TGI (SW-620 colon) [µM]	TGI (CAKI-1 renal) [µM]	TGI (SK-MEL-5 melanoma) [µM]	TGI (HCT-15 colon) [µM]	TGI (RPMI-8226 leukemia) [µM]	TGI (ACHN renal) [µM]	TGI (MDA-N) [µM]	TGI (SK-MEL-2 melanoma) [µM]	TGI (NCI-H226 lung) [µM]	TGI (SN12C renal) [µM]
C/C(C=O)=C/[C@@]1(C)O[C@@H](C)[C@@](C)(O)[C@@H]1O	7.12	> 100	40	> 100	37.1	> 100	51.5	> 100	44.4	> 100	> 100	> 100	> 100
COc1ccc2nc3ccc(OC)cc3c(SCCCl)c2c1	15.6	> 91.5	> 35.2	> 100	66.8	> 100	> 100	10.6	> 100	> 100	> 85.1	> 100	> 100
O=C1c2c(Br)sc(Br)c2[C@@H](O)[C@H]1O	4.84	> 100	> 44.4	12.3	33.7	32.4	30.1	47.6	33.5	31.8	32.6	37.7	32.8
